One may read the AC50 as the midpoint of the concentration-response curve, whichever way the signal moves. Read a high AC50 as weaker potency.

Residue numbers refer to the chain shown, from its start. Ends that are not written are not given here.

The text below walks through data of patent US20110152166A1, “METHOD OF MODULATION OF PROTEIN PHOSPHORYLATION-DEPENDENT CONFORMATIONAL TRANSITIONS WITH LOW MOLECULAR WEIGHT COMPOUNDS” (priority 2006, published 2011).

Test in all cases: PDK1 activity assay with T308tide
Common to all, as to format: biochemical

Assay [1] concerns the target T1, GST-PDK1 [Val124Ala] (Homo sapiens, UniProt O15530, V124A).
T1 construct: different protein constructs, comprising the full length protein or the catalytic domain alone; made in house; host or cells: HEK293 cells (pEBG-2T-PDK1 mutant)
T1 sequence (O15530 1-556 V124A): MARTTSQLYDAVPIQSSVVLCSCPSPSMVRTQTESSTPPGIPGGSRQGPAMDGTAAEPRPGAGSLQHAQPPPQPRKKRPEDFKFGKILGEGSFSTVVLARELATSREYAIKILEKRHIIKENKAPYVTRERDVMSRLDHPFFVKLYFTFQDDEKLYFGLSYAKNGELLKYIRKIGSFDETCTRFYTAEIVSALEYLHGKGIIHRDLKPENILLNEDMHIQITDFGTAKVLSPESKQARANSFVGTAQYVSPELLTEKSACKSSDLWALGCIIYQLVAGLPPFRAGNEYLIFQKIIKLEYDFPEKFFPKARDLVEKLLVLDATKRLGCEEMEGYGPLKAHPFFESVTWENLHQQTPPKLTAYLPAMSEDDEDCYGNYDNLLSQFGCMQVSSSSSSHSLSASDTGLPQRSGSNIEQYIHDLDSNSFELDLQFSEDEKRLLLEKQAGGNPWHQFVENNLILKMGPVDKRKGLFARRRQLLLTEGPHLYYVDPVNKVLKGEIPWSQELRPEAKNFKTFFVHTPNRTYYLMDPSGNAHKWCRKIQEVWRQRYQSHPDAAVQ

In assay [2] the target is T2, PDK1 50-360 (Homo sapiens, UniProt O15530).
T2 construct: the catalytic domain of PDK1 (50-359) produced in SF9 insect cells; His-tag (pFastbac-HT, TEV site) (N, cleaved yes); made in house; host or cells: Sf9 insect cells (baculovirus, pFastbac-HT)
T2 sequence (O15530 50-359): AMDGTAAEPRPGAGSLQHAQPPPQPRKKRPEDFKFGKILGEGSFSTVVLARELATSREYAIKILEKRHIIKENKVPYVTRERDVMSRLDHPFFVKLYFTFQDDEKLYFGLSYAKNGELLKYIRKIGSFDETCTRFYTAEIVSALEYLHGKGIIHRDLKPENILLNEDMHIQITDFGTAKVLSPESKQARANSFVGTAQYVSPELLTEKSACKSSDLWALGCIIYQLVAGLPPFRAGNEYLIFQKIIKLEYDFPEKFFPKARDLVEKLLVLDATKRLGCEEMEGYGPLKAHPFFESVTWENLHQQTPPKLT
The note with it: for AC50 / Max. activity: PDK1 50-360; for activation of PDK1 CD wt (in words): catalytic domain 50-360 wild type.

Assay [3] addresses T3, GST-PDK1 [Leu155Ala] (Homo sapiens, UniProt O15530, L155A).
T3 construct: different protein constructs, comprising the full length protein or the catalytic domain alone; made in house; host or cells: HEK293 cells (pEBG-2T-PDK1 mutant)
T3 sequence (O15530 1-556 L155A): T1 sequence (O15530 1-556 V124A) with A124V, L155A

Assay [4] has as its target T4, GST-PDK1 [Leu155Val] (Homo sapiens, UniProt O15530, L155V).
T4 construct: different protein constructs, comprising the full length protein or the catalytic domain alone; made in house; host or cells: HEK293 cells (pEBG-2T-PDK1 mutant)

T4 sequence (O15530 whole entry L155V, the tested form may be a part): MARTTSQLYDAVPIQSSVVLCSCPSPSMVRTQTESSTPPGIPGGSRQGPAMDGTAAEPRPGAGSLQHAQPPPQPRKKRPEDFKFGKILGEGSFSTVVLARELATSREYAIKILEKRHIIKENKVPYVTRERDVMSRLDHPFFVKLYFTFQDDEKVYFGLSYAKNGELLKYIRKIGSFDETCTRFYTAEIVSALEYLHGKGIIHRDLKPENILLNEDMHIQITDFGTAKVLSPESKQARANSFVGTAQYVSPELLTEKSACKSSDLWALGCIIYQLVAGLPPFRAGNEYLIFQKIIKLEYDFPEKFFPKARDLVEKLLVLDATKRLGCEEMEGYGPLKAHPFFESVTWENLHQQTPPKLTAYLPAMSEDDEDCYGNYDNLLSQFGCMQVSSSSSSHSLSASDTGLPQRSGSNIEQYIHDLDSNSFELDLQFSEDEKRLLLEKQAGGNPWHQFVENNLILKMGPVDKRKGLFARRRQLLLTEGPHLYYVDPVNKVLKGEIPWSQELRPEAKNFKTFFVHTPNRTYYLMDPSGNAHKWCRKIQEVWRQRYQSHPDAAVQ

Turning to `O=C(O)CSC(CC(=O)c1ccc(Cl)cc1)c1ccccc1` (stereo not shown) [Compound 1], the half-maximal activity concentration (AC50) is more than 200 µM in assay [1], 38 ± 8 µM in assay [2], more than 200 µM in assay [3] and “No Effect” in assay [4]. Also, the Max. activity amounted to 2.6 ± 0.5 U/mg in assay [1], 3.46 ± 0.19 U/mg in assay [2] and 2.02 ± 0.61 U/mg in assay [3]. Moreover, in assay [2], the “activation of PDK1 CD wt (in words)” value is “activated”.
In the case of “REPRILSEEEQEMFRDFDYIADWC [PIFtide, reference compound]”, the AC50 in assay [1] was 0.21 ± 0.03 µM; in assay [2] it was 0.17 ± 0.09 µM; in assay [3], 3.7 ± 0.66 µM; in assay [4], “No Effect”. Besides, the figures for the Max. activity in assay [1], in assay [2] and in assay [3] were 1.91 ± 0.06 U/mg, 2.62 ± 0.18 U/mg and 3.46 ± 0.15 U/mg, respectively. In assay [2], the “activation of PDK1 CD wt (in words)” value is recorded as “activated”.
